Calls of active or inactive are those of the source. Cut-off read from the data, not from the text of the source, for most assays here: actives have a measured EC50 and inactives only a lower limit.
What was measured:
HEK293 [1] = assay: cells; conditions: Homo sapiens
HEK293 [2] = assay: cells; conditions: Homo sapiens; remark: listed apart in the source
Cysteine protease ATG4B = target: T1, Cysteine protease ATG4B (Homo sapiens, UniProt Q9Y4P1); format: functional;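 note: Fluorescence-based dose-response confirmation assay measuring inhibition of ATG4B activity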
T1 sequence (Q9Y4P1 whole entry): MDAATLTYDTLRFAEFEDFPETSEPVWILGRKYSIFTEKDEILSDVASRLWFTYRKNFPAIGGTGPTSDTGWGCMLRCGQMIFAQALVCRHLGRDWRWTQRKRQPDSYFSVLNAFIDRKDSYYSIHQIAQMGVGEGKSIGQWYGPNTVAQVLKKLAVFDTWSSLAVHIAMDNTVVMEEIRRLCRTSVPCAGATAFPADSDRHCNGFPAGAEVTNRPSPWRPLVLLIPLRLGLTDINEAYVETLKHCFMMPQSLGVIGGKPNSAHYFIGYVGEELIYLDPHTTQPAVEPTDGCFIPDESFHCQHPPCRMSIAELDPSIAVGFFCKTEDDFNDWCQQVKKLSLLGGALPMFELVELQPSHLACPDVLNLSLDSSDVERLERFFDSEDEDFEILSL

Phospholipase A2 = Phospholipase A2 (Homo sapiens, UniProt P04054); format: functional;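 note: confirmatory dose-response counterscreen on phospholipase A2, testing hits that came from an ultra-high-throughput screen for ATG4B inhibitors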
[3] = target: T2, Alkaline phosphatase, tissue-nonspecific isozyme (Homo sapiens, UniProt P05186); assay: TNAP enzyme activators, dose response, selectivity assay for human IAP activator project, biochemical, TNAP isozyme, human IAP uHTS hits (AID 488886); format: functional;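 note: potency of compounds raising TNAP activity as a selectivity check on IAP activators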
T2 sequence (P05186 whole entry): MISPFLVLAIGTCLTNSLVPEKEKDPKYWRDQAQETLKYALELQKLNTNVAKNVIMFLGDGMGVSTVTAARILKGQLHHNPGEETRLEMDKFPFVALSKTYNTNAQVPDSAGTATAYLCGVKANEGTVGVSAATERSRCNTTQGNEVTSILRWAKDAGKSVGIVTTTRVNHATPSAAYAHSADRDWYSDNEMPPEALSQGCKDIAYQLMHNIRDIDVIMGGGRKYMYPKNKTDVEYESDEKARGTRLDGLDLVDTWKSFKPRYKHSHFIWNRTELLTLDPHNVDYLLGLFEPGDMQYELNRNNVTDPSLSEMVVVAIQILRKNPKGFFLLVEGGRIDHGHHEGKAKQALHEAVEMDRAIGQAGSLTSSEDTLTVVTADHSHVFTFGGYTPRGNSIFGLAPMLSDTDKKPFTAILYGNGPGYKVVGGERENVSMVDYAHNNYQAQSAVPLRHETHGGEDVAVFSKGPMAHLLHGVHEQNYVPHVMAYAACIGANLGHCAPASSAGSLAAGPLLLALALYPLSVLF

[4] = target: T3, Intestinal-type alkaline phosphatase (Homo sapiens, UniProt P09923); assay: human intestinal alkaline phosphatase activators, dose response, biochemical, luminescence, uHTS hits (AID 463120); format: functional
[5] = target: Intestinal-type alkaline phosphatase (Mus musculus, UniProt P24822); assay: PubChem AID 488875; format: functional
[6] = target: T3, Intestinal-type alkaline phosphatase; assay: human IAP activators, dose response, biochemical, luminescent, uHTS hits, set 2 (AID 488817); format: functional;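 note: potency of activators that raise enzyme activity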
[7] = target: UDP-galactopyranose mutase (Mycobacterium tuberculosis, UniProt P9WIQ1); assay: Inhibitors of Mycobacterium tuberculosis UDP-galactopyranose mutase (UGM) enzyme Measured in Biochemical System Using Plate Reader - 2105-02_Inhibitor_Dose_CherryPick_Activity. [Related pubchem assays (depositor defined):AID504439]
[8] = cytotoxicity in HEK-293T cells, dose response, cytotoxicity control for BCR NF-kB inhibitor project, luminescence, B-cell screen hits (AID 489021); format: functional, cell-based;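 note: HEK-293T cells carrying an NF-kB luciferase reporter; cells exposed to compound for about 14 hours before viability readout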
Protein RecA = target: T4, Protein RecA (Mycobacterium tuberculosis, UniProt P9WHJ3); assay: Fluorescence Cell-Free Homogeneous Dose Retest to Identify Inhibitors of RecA-Intein Splicing Activity. [Related pubchem assays (depositor defined):AID2097, AID2223, AID489010, AID492950]; format: functional
T4 sequence (P9WHJ3 whole entry): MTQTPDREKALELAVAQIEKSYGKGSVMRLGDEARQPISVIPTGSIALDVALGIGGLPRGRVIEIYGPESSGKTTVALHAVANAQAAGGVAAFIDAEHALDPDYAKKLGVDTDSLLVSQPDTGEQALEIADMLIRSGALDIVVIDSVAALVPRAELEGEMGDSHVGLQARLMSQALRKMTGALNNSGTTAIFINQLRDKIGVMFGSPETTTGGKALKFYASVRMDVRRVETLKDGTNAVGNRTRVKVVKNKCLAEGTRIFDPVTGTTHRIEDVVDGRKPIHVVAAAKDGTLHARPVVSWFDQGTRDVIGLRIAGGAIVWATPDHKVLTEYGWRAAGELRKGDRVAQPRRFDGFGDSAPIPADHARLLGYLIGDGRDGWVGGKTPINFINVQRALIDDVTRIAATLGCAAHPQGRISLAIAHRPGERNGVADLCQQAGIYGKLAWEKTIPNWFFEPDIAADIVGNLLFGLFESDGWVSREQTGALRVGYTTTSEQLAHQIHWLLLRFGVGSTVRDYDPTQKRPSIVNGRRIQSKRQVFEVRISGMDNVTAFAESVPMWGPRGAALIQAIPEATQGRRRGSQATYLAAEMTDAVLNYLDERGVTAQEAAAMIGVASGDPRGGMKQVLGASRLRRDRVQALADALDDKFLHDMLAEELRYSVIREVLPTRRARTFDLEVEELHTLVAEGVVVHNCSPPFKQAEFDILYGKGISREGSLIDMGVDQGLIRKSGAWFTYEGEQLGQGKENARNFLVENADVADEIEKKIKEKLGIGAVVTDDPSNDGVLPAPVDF

[9] = inhibitors of firefly luciferase expression or activity, dose response, H4 neuroglioma cells, luminescence (AID 1990); format: functional, cell-based
[10] = NIH-3T3 fibroblast cytotoxicity, dose response, cytotoxicity control, cell-based, fluorescence, Alamar Blue, secondary assay (AID 2327); format: functional;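 note: NIH-3T3 mouse fibroblasts cultured with fluconazole at 8 µg/mL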
[11] = inhibitors of intracellular T. cruzi replication, confirmation, NIH3T3 host cells, beta-gal luminescence (AID 2044); format: functional, cell-based;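 note: intracellular parasites grown in NIH/3T3 mouse fibroblasts as host cells; luminescent beta-galactosidase reporter signal from transgenic T. cruzi replicating inside host cells; inhibitors lower the luminescence signal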
[12] = Intein inhibitors as potential Tuberculosis drugs, a cytotoxicity screen. [Related pubchem assays (depositor defined):AID2221, AID2223, AID434968, AID435010, AID449749, AID449750, AID489010]; format: functional
HEK293 [13] = assay: inhibitors of LMP1-driven NF-kB reporter, dose response, cell-based, HEK293, luciferase, cherry-pick (AID 588343); format: functional; conditions: Homo sapiens
[14] = target: T5, Heat shock factor protein 1 (Mus musculus, UniProt P38532); assay: inhibition of MG132-induced HSE-luciferase signal, confirmation, cell-based, NIH3T3, luminescence, dose retest (AID 2382); format: functional;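 note: NIH3T3 fibroblasts with HSF1-driven luciferase reporter stressed by proteasome inhibitor MG132; luminescence from HSF1-driven luciferase expression after 8 hours of MG132 stress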
T5 sequence (P38532 whole entry): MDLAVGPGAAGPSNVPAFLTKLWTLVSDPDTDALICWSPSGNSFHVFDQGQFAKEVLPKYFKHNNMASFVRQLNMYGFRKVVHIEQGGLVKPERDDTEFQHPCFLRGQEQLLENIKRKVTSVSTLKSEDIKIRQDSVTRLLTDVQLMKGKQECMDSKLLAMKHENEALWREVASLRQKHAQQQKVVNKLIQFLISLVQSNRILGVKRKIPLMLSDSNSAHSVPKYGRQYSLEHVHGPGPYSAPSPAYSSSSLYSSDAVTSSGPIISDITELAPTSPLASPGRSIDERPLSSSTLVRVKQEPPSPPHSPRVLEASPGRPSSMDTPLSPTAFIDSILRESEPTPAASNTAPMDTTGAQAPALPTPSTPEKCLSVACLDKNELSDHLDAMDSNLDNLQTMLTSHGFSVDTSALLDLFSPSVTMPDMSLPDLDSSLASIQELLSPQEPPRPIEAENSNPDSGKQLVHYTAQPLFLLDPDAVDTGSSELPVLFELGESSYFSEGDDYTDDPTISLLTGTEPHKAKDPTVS

[15] = target: T6, Replicative DNA helicase DnaB (Mycobacterium tuberculosis, UniProt P9WMR3); assay: DnaB intein splicing inhibitors, dose response, biochemical, cell-free fluorescence (AID 449749); format: functional
T6 sequence (P9WMR3 whole entry): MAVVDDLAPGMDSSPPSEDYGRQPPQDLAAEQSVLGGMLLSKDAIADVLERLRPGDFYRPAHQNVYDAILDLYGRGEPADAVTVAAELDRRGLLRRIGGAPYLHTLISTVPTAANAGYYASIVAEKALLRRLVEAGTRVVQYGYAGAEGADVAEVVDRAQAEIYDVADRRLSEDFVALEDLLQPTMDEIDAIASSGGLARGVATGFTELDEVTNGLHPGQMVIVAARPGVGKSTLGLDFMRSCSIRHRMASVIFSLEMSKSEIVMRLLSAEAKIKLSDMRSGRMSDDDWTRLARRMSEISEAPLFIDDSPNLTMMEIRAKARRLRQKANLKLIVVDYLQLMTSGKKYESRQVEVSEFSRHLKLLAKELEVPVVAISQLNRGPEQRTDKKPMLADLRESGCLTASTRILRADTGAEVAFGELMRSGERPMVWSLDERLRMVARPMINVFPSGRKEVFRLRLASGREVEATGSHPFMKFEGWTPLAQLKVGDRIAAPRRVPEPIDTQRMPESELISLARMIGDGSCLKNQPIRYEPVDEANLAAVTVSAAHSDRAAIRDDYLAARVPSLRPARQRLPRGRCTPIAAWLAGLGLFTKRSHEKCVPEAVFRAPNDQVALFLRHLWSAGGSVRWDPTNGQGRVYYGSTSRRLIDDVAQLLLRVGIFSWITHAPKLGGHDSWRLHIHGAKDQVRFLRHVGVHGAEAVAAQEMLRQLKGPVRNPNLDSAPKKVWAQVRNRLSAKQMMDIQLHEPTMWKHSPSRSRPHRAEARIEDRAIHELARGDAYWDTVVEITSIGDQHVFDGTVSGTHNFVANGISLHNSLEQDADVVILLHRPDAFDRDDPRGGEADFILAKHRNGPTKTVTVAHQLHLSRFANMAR

[16] = Luminescence Cell-Based Dose Response HTS to Identify Inhibitors of 5'UTR Stem-Loop Driven Prion Protein mRNA Translation in H4 Neuroglioblastoma Cells. [Related pubchem assays: 1827 (Project Summary), 1813 (Primary HTS)]; format: functional
[17] = inhibitors of SNCA 5'UTR-driven reporter translation, confirmation, H4 neuroglioma cells, luminescence (AID 1988); format: functional, cell-based
[18] = cytotoxicity toward NIH3T3 fibroblasts, dose response, counter-screen, cell-based, ATP luminescence, mouse fibroblasts (AID 2010); format: functional;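 note: cells exposed to compound for about 90 hours before reading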
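Throughout, for CC50: cells exposed to compound for 72 hours before luminescence readout.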

T3 sequence (P09923 whole entry): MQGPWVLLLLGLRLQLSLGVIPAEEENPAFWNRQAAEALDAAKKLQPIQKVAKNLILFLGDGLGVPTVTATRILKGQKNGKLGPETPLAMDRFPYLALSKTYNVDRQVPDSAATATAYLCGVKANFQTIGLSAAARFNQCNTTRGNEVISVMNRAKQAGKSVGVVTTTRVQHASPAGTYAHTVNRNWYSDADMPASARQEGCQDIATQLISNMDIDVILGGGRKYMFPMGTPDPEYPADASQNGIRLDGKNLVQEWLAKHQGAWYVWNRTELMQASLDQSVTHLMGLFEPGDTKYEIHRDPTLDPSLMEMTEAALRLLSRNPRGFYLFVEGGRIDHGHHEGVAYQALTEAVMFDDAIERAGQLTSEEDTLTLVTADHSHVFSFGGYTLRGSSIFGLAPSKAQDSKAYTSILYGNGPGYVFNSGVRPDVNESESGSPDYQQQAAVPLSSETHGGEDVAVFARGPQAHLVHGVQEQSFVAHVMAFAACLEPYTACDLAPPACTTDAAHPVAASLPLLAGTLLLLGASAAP
Intestinal-type alkaline phosphatase (Mus musculus, UniProt P24822), sequence (P24822 whole entry): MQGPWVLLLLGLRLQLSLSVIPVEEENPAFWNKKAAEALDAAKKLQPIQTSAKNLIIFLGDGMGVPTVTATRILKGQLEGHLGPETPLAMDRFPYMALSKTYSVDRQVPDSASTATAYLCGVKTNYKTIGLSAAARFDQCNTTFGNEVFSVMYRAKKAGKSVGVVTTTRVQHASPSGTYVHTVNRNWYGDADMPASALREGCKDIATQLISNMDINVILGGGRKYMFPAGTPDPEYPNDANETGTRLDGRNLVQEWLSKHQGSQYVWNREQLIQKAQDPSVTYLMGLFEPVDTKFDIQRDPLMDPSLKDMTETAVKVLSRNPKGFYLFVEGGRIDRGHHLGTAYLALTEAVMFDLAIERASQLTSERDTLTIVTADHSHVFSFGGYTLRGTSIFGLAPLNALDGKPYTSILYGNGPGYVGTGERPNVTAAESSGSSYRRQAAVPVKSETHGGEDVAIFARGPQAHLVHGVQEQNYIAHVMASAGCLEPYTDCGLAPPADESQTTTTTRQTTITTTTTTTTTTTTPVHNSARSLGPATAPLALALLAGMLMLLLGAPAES
Phospholipase A2, sequence (P04054 whole entry): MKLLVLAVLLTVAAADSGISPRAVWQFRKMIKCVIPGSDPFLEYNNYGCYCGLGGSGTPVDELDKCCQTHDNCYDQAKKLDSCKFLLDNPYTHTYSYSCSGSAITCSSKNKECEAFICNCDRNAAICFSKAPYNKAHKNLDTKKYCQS
UDP-galactopyranose mutase, sequence (P9WIQ1 whole entry): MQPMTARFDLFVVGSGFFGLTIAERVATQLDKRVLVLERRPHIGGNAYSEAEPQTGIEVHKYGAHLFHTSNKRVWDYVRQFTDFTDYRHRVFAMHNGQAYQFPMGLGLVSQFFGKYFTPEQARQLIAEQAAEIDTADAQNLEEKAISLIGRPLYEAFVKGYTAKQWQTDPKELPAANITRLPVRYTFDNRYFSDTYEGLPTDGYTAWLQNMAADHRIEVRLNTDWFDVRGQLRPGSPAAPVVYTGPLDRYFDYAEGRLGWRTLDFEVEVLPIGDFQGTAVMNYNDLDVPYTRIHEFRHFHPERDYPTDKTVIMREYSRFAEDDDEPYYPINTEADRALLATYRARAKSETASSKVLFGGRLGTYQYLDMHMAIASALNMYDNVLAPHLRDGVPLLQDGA

CCn1c(SCc2ccccc2Cl)nc2nc3c(cc2c1=O)CCCC3
EC50 (HEK293 [1]): > 59.6 µM (inactive)
EC50 (HEK293 [2]): > 59.6 µM (inactive)
IC50 (Cysteine protease ATG4B): 12.5 µM (active)
IC50 (Phospholipase A2): 4.98 µM (active)

Cc1ccccc1CN1CCC(n2nccc2NC(=O)CCCc2ccccc2)CC1
EC50 [3]: 63.4 µM (active)
EC50 [4]: 70.7 µM (active)
EC50 [5]: 61 µM (active)
EC50 [6]: 64.1 µM (active)

Cc1nn(C)cc1N1C(=O)c2cccc3c(N)ccc(c23)C1=O
AC50 [7]: 1.91 µM (active)

O=C(CCl)N(c1ccc(Cl)cc1)c1c[nH]c2ccccc12
IC50 [8]: 15 µM (active)
EC50 (Protein RecA): 0.195 µM (active)
EC50 [9]: 13.2 µM (active)
EC50 [10]: 4.07 µM (inconclusive)
EC50 [11]: 0.412 µM (active)
CC50 [12]: 0.86 µM (active)
AC50 (HEK293 [13]): 12.5 µM (active)
EC50 [14]: 2.72 µM (active)
AC50 [15]: 2.46 µM (active)
EC50 [16]: 15.5 µM (active)
EC50 [17]: 8.46 µM (active)
EC50 [18]: < 6 µM (inconclusive)

— ChEMBL document CHEMBL1201862, “PubChem BioAssay data set” (2004)
